Values of other authors, collected in patent publication US12569513B1, “Stable, highly pure L-cysteine compositions for injection and methods of use” (priority 2019, dated 2026).
Converted amounts (≈) assume the structure as drawn.

N[C@@H](CS)C(=O)O [L-Cysteine, 2-Amino-3-sulfhydrylpropanoic acid]
solubility: 50 mg/mL (≈ 413 mM)
